# Data published in patent US20070191372A1, “Dna-targeted benzotriazine 1,4-dioxides and their use in cancer therapy” (Auckland Uniservices Limited, priority 2002, published 2007).
# How the values were obtained:
# [1] = cited from earlier work
# [2] = tested on: human colon carcinoma HT-29; assay: Clonogenic assay under aerobic and hypoxic conditions, HT-29; assay type: cell-based; settings: HT 29 cells; for C10 hypoxic: 60 min drug exposure, concentration reducing plating efficiency to 10% of controls; for HCR: ratio of C10 under aerobic and hypoxic conditions; for RHT: ratio of hypoxic TPZ C10 to hypoxic compound C10
# Procedure: (§1) Evaluation of the Cytotoxicity of Compounds by Clonogenic Assay Under Aerobic and Hypoxic Conditions.
# (§2) Compounds representative of the invention were evaluated under both aerobic and hypoxic conditions in clonogenic assays, using three cell lines: human colon carcinoma HT-29, murine SCCVII, and human lung adenocarcinoma LXFL. Clonogenic survival was determined using aerobic and hypoxic SCCVII cell suspensions. Drug exposures were performed using continuously stirred and gassed single cell suspensions (10^6 cells/mL) at 37° C., equilibrated with 5% CO2 in air or N2 for 60 min before drug addition. After a 60 min drug exposure cells were washed by centrifugation and plated to determine colony formation Cytotoxicity was measured as the concentration required to reduce plating efficiency to 10% of controls (C10). The hypoxic cytotoxicity ratio (HCR) was determined as the ratio of the C10 values under aerobic and hypoxic conditions. The relative hypoxic toxicity (RHT) was determined as the ratio of hypoxic TPZ C10 to hypoxic BTO C10. Abbreviations used in Table 2 are:
# (§3) C10=The concentration of drug (in micromolar) to reduce viable cell numbers to 10% of those of control cell cultures grown under the same conditions but not exposed to drug
# (§4) RHT=Relative hypoxic toxicity is defined as the ratio of concentrations of Tirapazamine/test compound to give equal cell killing under hypoxic conditions.
# (§5) HCR=Hypoxic cytotoxicity ratio is defined as the ratio of drug concentrations under aerobic and hypoxic condition to produce equal cell survival (10%) determined by clonogenic assay
# [3] = tested on: human cervical carcinoma SiHa; assay: Proliferation assay (IC50) under aerobic and hypoxic conditions, SiHa; assay type: cell-based
# Procedure: (§6) Evaluation of the Cytotoxicity of Compounds by Proliferation Assay (IC50) Under Aerobic and Hypoxic Conditions.
# (§7) Compounds representative of the invention were evaluated under both aerobic and hypoxic conditions in a proliferation assay (IC50), using two cell lines: human colon carcinoma HT-29, and human cervical carcinoma SiHa.
# (§8) Drug exposures were performed in 96-well plates (Nunc) using either a 37° C. humidified incubator (20% O2, 5% CO2) or in the incubator compartment (37° C.) of an anaerobic chamber (Shell Lab) where palladium catalyst scrubbed gas (90% N2, 5% H2, 5% CO2) ensures severe anoxia (<0.001% O2). For each experiment, compounds were simultaneously tested under both oxic and hypoxic conditions against the HT-29 cell line and included TPZ as an independent internal control at the front and back of the assay (n=2). Final data was pooled from a series of seven independent experiments and is calculated using inter-experimental means. In all cases, 8-methyl-5-nitroquinoline was used as a second internal control to confirm that strict hypoxia was present during the experiment. (Siim et al. Br. J. Cancer 1994, 70, 596-603). Cell cultures were grown in αMEM (Gibco) containing 5% heat inactivated FCS and maintained in exponential growth phase. For each individual experiment an appropriate number of cells were seeded (HT-29=1000) into wells in αMEM÷10% FCS+10 mM added glucose+100 μM 2′-deoxycytidine (2′dCyd), and allowed to attach for 3 h. High glucose (final concentration 17 mM) and the presence of 2′-dCyd minimize hypoxia-induced cell cycle arrest. Replicates were then exposed to BTOs, using 2-fold serial dilutions in triplicate, for a further 4 h. Subsequently cells were washed free of compound using complete media (without glucose/2′-dCyd) and allowed to grow for 5 (oxic) or 6 (anoxic) days. Plates were stained as described previously (Wilson et al., J. Med. Chem. 1989, 32, 31-38) and IC50 values determined.
# (§9) IC50=The concentration of drug (in micromolar) to reduce viable cell numbers to 50% of those of control cell cultures grown under the same conditions but not exposed to drug
# as §4
# (§10) HCR=Hypoxic cytotoxicity ratio is defined as the ratio of drug concentrations under aerobic and hypoxic condition to produce equal cell survival (50%) determined by proliferation assay
# [4] = tested on: human colon carcinoma HT-29; assay: Proliferation assay (IC50) under aerobic and hypoxic conditions, HT-29; assay type: cell-based; settings: for RHT: HT-29, ratio Tirapazamine/test compound under hypoxic conditions; for HCR: HT-29, ratio of IC50 under aerobic and hypoxic conditions; for IC50: Homo sapiens, HT-29, hypoxic (anoxia <0.001% O2), 4 h exposure
# Procedure: as §6, §7, §8, §9, §4, §10
# [5] = tested on: human lung adenocarcinoma LXFL; assay: Clonogenic assay under aerobic and hypoxic conditions, LXFL; assay type: cell-based; settings: LXFL cells; for C10 hypoxic: 60 min drug exposure; for HCR: ratio of C10 under aerobic and hypoxic conditions; for RHT: ratio of hypoxic TPZ C10 to hypoxic compound C10
# Procedure: as §1, §2, §3, §4, §5
# [6] = tested on: murine SCCVII; assay: Clonogenic assay under aerobic and hypoxic conditions, SCCVII; assay type: cell-based; settings: SCVIII cells; for IC90: Mus musculus, 1 h, hypoxic, 60 min drug exposure, SN (hypoxic), read-out: C10 hypoxic; for HCR: ratio of C10 under aerobic and hypoxic conditions; for RHT: ratio of hypoxic TPZ C10 to hypoxic compound C10
# Procedure: as §1, §2, §3, §4, §5
"IC50 ([3]; Homo sapiens, hypoxic, 4 h exposure) [nM]",IC50 [4] [nM],IC90 [6] [nM],Structure (SMILES),activity under aerobic or hypoxic conditions [1],C10 hypoxic [2] [µM],HCR [2],RHT [2],RHT ([3]; ratio Tirapazamine/test compound under hypoxic conditions),HCR ([3]; ratio of IC50 under aerobic and hypoxic conditions),RHT [4],HCR [4],C10 hypoxic [5] [µM],HCR [5],RHT [5],HCR [6],RHT [6]
–,–,–,Nc1nnc2ccccc2n1 [SR 4330],inactive,–,–,–,–,–,–,–,–,–,–,–,–
–,–,–,Nc1nc2ccccc2[n+]([O-])n1 [SR 4317],inactive,–,–,–,–,–,–,–,–,–,–,–,–
31,65,300,"O=C(NCCCNCCCNc1n[n+]([O-])c2ccccc2[n+]1[O-])c1cccc2cc3ccccc3nc12 [Compound 30, N-[3-({3-[(1,4-Dioxido-1,2,4-benzotriazin-3-yl)amino]propyl}amino)propyl]-4-acridinecarboxamide]",–,0.9,33.0,78,121,41,90,167,0.4,12.5,50,21.3,20
–,16,480,"[O-][n+]1nc(NCCCCCCNc2c3ccccc3nc3ccccc23)[n+]([O-])c2ccccc21 [Compound 11, N^1-(9-Acridinyl)-N^6-(1,4-dioxido-1,2,4-benzotriazin-3-yl)-1,6-hexanediamine]",–,0.12,83.0,416,–,–,370,38,0.04,35.0,450,20.0,16.7
